According to the supplement of paper PMC13380429:

What was measured:
HepG2 [1] = experiment: relative viability EC50 (midpoint between 100% and the lowest measured viability); higher = less toxic; conditions: 72 h
Calu-3 [2] = experiment: as above; conditions: 72 h
U2OS [3] = experiment: as above; conditions: 72 h
Caco-2 [4] = experiment: as above; conditions: 72 h
Vero E6 [5] = experiment: as above; conditions: 72 h
HepG2 [6] = experiment: drug sensitivity score (DSS) for viability; higher = more toxic; extreme values may be limits of the assay; conditions: 72 h
Calu-3 [7] = experiment: as above; conditions: 72 h
U2OS [8] = experiment: as above; conditions: 72 h
Caco-2 [9] = experiment: as above; conditions: 72 h
Vero E6 [10] = experiment: as above; conditions: 72 h
HepG2 [11] = experiment: cell viability relative to DMSO; higher = less toxic; conditions: 72 h
Calu-3 [12] = experiment: as above; conditions: 72 h
U2OS [13] = experiment: as above; conditions: 72 h
Caco-2 [14] = experiment: as above; conditions: 72 h
Vero E6 [15] = experiment: as above; conditions: 72 h
[16] = test system: A549-ACE2 infected with SARS-CoV-2; experiment: morphology score (similarity to uninfected cells); higher = more like uninfected cells; conditions: 24 h
A549-ACE2 = experiment: phospholipidosis EC50; higher = less potent phospholipidosis inducer

COc1cc(CCc2cc(NC(=O)c3ccc(N4CC(C)NC(C)C4)cc3)n[nH]2)cc(OC)c1 (configuration not stated) [AZD4547]
Conditions	drug sensitivity score	relative viability EC50 [µM]
Caco-2 [4]	–	> 10
Caco-2 [9]	0.2	–
Calu-3 [2]	–	> 10
Calu-3 [7]	0	–
HepG2 [1]	–	1.99
HepG2 [6]	5	–
U2OS [3]	–	1.61
U2OS [8]	4.5	–
Vero E6 [5]	–	> 10
Vero E6 [10]	0	–

cell viability [%]
Conditions	Caco-2 [14]	Calu-3 [12]	HepG2 [11]	U2OS [13]	Vero E6 [15]
1 nM	87.5	101	95.7	101	95.7
10 nM	93.8	107	105	94.8	98.1
100 nM	99.3	93.8	87.3	95.2	92.5
1000 nM	104	99.4	90.7	88.2	96.2
10000 nM	80.4	99.8	37	49.5	100

CCCCC/C=C\C/C=C\C/C=C\C/C=C\CCCC(=O)Nc1ccc(O)cc1 [AM-404]
Conditions	drug sensitivity score	relative viability EC50 [µM]
Caco-2 [4]	–	> 10
Caco-2 [9]	0	–
Calu-3 [2]	–	> 10
Calu-3 [7]	0	–
HepG2 [1]	–	> 10
HepG2 [6]	0	–
U2OS [3]	–	> 10
U2OS [8]	0	–
Vero E6 [5]	–	> 10
Vero E6 [10]	0	–

cell viability [%]
Conditions	Caco-2 [14]	Calu-3 [12]	HepG2 [11]	U2OS [13]	Vero E6 [15]
1 nM	95.3	104	110	96.9	105
10 nM	98.2	93.1	104	95.2	106
100 nM	103	96.8	93.9	100	92.9
1000 nM	100	99.1	107	93.8	102
10000 nM	95	102	87.6	96.3	96.5

CN(C)CCCN1c2ccccc2Sc2ccc(C(F)(F)F)cc21 [triflupromazine]
Conditions	morphology score, 0.3 µM	morphology score, 3 µM	morphology score, 10 µM	morphology score, 30 µM	phospholipidosis EC50, 24 h [µM]	phospholipidosis EC50, 48 h [µM]	phospholipidosis EC50, 72 h [µM]
A549-ACE2	–	–	–	–	4.26	11.7	3.51
[16]	0.09	0.65	0.84	0.41	–	–	–

NC(=O)[C@@H]1CC[C@@H]2CN1C(=O)N2OS(=O)(=O)O [avibactam]
Conditions	drug sensitivity score	relative viability EC50 [µM]
Caco-2 [4]	–	> 10
Caco-2 [9]	0	–
Calu-3 [2]	–	> 10
Calu-3 [7]	0	–
HepG2 [1]	–	> 10
HepG2 [6]	0	–
U2OS [3]	–	> 10
U2OS [8]	0	–
Vero E6 [5]	–	> 10
Vero E6 [10]	0	–

cell viability [%]
Conditions	Caco-2 [14]	Calu-3 [12]	HepG2 [11]	U2OS [13]	Vero E6 [15]
1 nM	101	94.8	114	97.2	95
10 nM	92.5	81.7	109	94.6	96.5
100 nM	92.5	104	90.9	101	97.6
1000 nM	95.7	91.3	98.4	96.9	97.1
10000 nM	92.7	104	97.8	98.7	98.6

C=C1/C(=C\C=C2/CCC[C@]3(C)[C@@H]([C@H](C)/C=C/[C@H](C)C(C)(C)O)CC[C@@H]23)C[C@@H](O)C[C@@H]1O [ercalcitriol]
Conditions	drug sensitivity score	relative viability EC50 [µM]
Caco-2 [4]	–	> 10
Caco-2 [9]	0	–
Calu-3 [2]	–	> 10
Calu-3 [7]	0	–
HepG2 [1]	–	> 10
HepG2 [6]	0.1	–
U2OS [3]	–	> 10
U2OS [8]	0	–
Vero E6 [5]	–	> 10
Vero E6 [10]	0	–

cell viability [%]
Conditions	Caco-2 [14]	Calu-3 [12]	HepG2 [11]	U2OS [13]	Vero E6 [15]
1 nM	97.7	106	104	104	99
10 nM	110	99.2	107	99.7	99.6
100 nM	106	101	104	99.4	88.5
1000 nM	96.4	99	104	95.7	98.1
10000 nM	94.6	100	84.7	91.5	94.9

Nc1ccc(S(N)(=O)=O)cc1 [sulfanilamide]
Conditions	drug sensitivity score	relative viability EC50 [µM]
Caco-2 [4]	–	> 10
Caco-2 [9]	0	–
Calu-3 [2]	–	> 10
Calu-3 [7]	0	–
HepG2 [1]	–	> 10
HepG2 [6]	0	–
U2OS [3]	–	> 10
U2OS [8]	0	–
Vero E6 [5]	–	> 10
Vero E6 [10]	0	–

cell viability [%]
Conditions	Caco-2 [14]	Calu-3 [12]	HepG2 [11]	U2OS [13]	Vero E6 [15]
1 nM	85.8	95	96.8	98.8	99.8
10 nM	59.8	97.2	104	97	94.2
100 nM	84.2	106	95.1	106	83.1
1000 nM	81.1	90.7	109	100	105
10000 nM	113	102	103	103	117

Cc1ccc(NC2=CC(=O)c3sc(C)nc3C2=O)cc1 [ryuvidine]
Conditions	drug sensitivity score	relative viability EC50 [µM]
Caco-2 [4]	–	1.64
Caco-2 [9]	9	–
Calu-3 [2]	–	3.29
Calu-3 [7]	5.2	–
HepG2 [1]	–	3.02
HepG2 [6]	5.3	–
U2OS [3]	–	3.12
U2OS [8]	5.7	–
Vero E6 [5]	–	2.84
Vero E6 [10]	5.2	–

cell viability [%]
Conditions	Caco-2 [14]	Calu-3 [12]	HepG2 [11]	U2OS [13]	Vero E6 [15]
1 nM	94.2	115	95.4	102	100
10 nM	91.8	95.8	106	97.3	97.7
100 nM	92.7	109	97.9	104	97.4
1000 nM	77.9	102	98.1	99.3	96.4
10000 nM	0.9	2.7	8.5	0	16.2

Cc1cc(Oc2ccc3nc(COc4ccc(CC5SC(=O)NC5=O)cc4)n(C)c3c2)cc(C)c1N (configuration not stated) [efatutazone]
Conditions	drug sensitivity score	relative viability EC50 [µM]
Caco-2 [4]	–	> 10
Caco-2 [9]	0	–
Calu-3 [2]	–	> 10
Calu-3 [7]	0	–
HepG2 [1]	–	> 10
HepG2 [6]	0	–
U2OS [3]	–	> 10
U2OS [8]	0	–
Vero E6 [5]	–	> 10
Vero E6 [10]	3.6	–

cell viability [%]
Conditions	Caco-2 [14]	Calu-3 [12]	HepG2 [11]	U2OS [13]	Vero E6 [15]
1 nM	102	106	105	98.3	95.4
10 nM	97.6	102	99.5	104	86
100 nM	97.1	104	106	97.5	87.5
1000 nM	97.3	105	104	106	87.1
10000 nM	97.4	99.2	103	97.6	85.3
